How the values were obtained:
Hepatoma AH 130 = assay: in vivo; set-up: species or system SPF Wistar rats
How it was run: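 SPF Wistar rats were implanted i.p. with 5 × 10^6 AH 130 cells and given one i.p. dose the next day. On day 8 they were killed and tumour weights were compared with controls. ED50 is the dose halving tumour size, LD50 the 50% lethal dose, and T.I. is LD50/ED50.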

[1] = test system: Lymphatic leukemia L 1210; assay: Lymphatic leukemia L 1210 test; assay type: in vivo, CDF1 (C3H×DBA/2)F1 mice; conditions: dose of 1000 mg/kg, comparative compounds
Source text: (§1) The experimental design and the interpretation of the results have been in accordance with the standards set by the CCNSC (Cancer Chemotherapy Reports, January 1959 and December 1962), and by the DR&D (Cancer Chemotherapy Reports, September 1972, Vol. 3, No. 2).
(§2) The way of administration is by the intraperitoneal route (i.p.) in each case.
Lymphatic leukemia L 1210
Experimental animals: CDF1 (C3H×DBA/2)F1 mice.
Tumour implant: 10^5 tumour cells i.p.
(§3) Therapy: One injection i.p. on the day following implantation.
Evaluation: a) The survival time of the test animals (t) expressed as the percentage of that of control animals (c).
b. Weight change in the test animals (T) compared with that of the control animals (c) up to the 5th day.
c. The mortality rate must not exceed 35% in the test animals on the 5th day of therapy.

[2] = test system: Walker carcinosarcoma 256; assay: Walker carcinosarcoma 256 test; assay type: in vivo, Sprague Dawley rats; conditions: for Lethality: died/used animals
Source text: as §1, §2
Walker carcinosarcoma 256
Experimental animals: Sprague Dawley rats.
Tumour implant: Tumour pieces with 2-4 mm diameter, subcutaneously.
Therapy: Daily injections i.p. for 5 days starting on the day following implantation.
Termination: The animals are killed on the 9th day.
Evaluation: Weights of tumours of test animals are compared with those of control animals. The differences, in per cent of weights of tumours of control animals, give per cent tumour inhibition.
The lethality is given as the number of animals which died in the experiment/the number of animals used in the experiments.

[3] = test system: Ehrlich ascites tumour, ELD hyperdiploid (46 chromosomes); assay: Ehrlich ascites tumour test (LD50, ED50, therapeutic index); assay type: in vivo, SPF NMRI mice; conditions: additional compounds, result in words
Source text: The high activity against tumours is further illustrated in these experiments by comparisons with known antitumour agents used in the therapy. The therapeutic indexes (T.I.), i.e. the ratios LD50/ED50, are in all comparisons much more favourable with the compounds of the present invention.
LD50 is the dose that caused a 50 percent lethality of the animals, ED50 is the dose that caused a 50 percent reduction of tumour size.
as §1, §2
Ehrlich ascites tumour, ELD hyperdiploid (46 chromosomes)
Experimental animals: SPF NMRI mice.
Tumour implant: 2 × 10^6 tumour cells i.p.
as §3
Termination: The animals are killed on the 8th day.
Evaluation: Weights of tumours of test animals compared with those of control animals.

[4] = doses 1 × 250, 1 × 500 and 1 × 1000 mg/kg respectively
[5] = additional compounds, result in words

`C[C@]12CC[C@H](OC(=O)NCCCl)CC1=CC[C@@H]1[C@@H]2CC[C@]2(C)C(=O)CC[C@@H]12` [dehydroepiandrosterone-3β-N-(2-chloroethyl) carbamate, reference compound] was tested, and the anti-tumor activity (Hepatoma AH 130; [4]) was “inactive” and the “effect on L 1210” value [1] was “without effect”.

`CCN(N=O)C(=O)O[C@H]1CC[C@@]2(C)C(=CC[C@@H]3[C@@H]2CC[C@]2(C)C(=O)CC[C@@H]32)C1` [dehydroepiandrosterone-3β-N-ethyl-N-nitroso carbamate, reference compound] was tested, and the anti-tumor activity (Hepatoma AH 130; [4]) was “inactive”, the Tumour inhibition % ([2]; 5×500 mg/kg i.p.) was 0% and the Lethality ([2]; 5×500 mg/kg i.p.) was 1/8. The “effect on L 1210” value [1] was “without effect”.

In the case of `C[C@]12CC[C@H](OC(=O)N(CCCBr)N=O)CC1=CC[C@@H]1[C@@H]2CC[C@]2(C)C(=O)CC[C@@H]12` [dehydroepiandrosterone - 3β-N-(3-bromopropyl)-N-nitroso carbamate], the Tumour inhibition % ([2]; 5×125 mg/kg i.p.) is reported as 39%, the Lethality ([2]; 5×125 mg/kg i.p.) is reported as 0/8 and the anti-tumor activity [3] is reported as “exhibit anti-tumor activity”.

In the case of `CC(C)CCC[C@@H](C)[C@H]1CC[C@H]2[C@@H]3CC=C4C[C@@H](OC(=O)N(C(=O)N(CCCl)N=O)C5CCCCC5)CC[C@]4(C)[C@H]3CC[C@]12C` [cholesterol-3β-/N^2-cyclohexyl-N^4-(2-chloroethyl)-N^4-nitroso allophanate/], the anti-tumor activity (Hepatoma AH 130; [5]) is reported as “exhibit anti-tumor activity” and the anti-tumor activity [3] is reported as “exhibit anti-tumor activity”.

In the case of `C[C@]12CC[C@H](OC(=O)N(C(=O)N(CCCl)N=O)C3CCCCC3)CC1=CC[C@@H]1[C@@H]2CC[C@]2(C)C(=O)CC[C@@H]12` [dehydroepiandrosterone-3β-/N^2-cyclohexyl-N^4-(2-chloroethyl)-N^4-nitroso allophanate/], the anti-tumor activity (Hepatoma AH 130; [5]) is reported as “exhibit anti-tumor activity” and the anti-tumor activity [3] is reported as “exhibit anti-tumor activity”.

In the case of `C[C@]12CCC(=O)C[C@@H]1CC[C@@H]1[C@@H]2CC[C@]2(C)[C@@H](OC(=O)N(C(=O)N(CCCl)N=O)C3CCCCC3)CC[C@@H]12` [dihydrotestosteron-17β-/N^2-cyclohexyl-N^4-(2-chloroethyl)-N^4-nitroso allophanate/], the anti-tumor activity (Hepatoma AH 130; [5]) is reported as “exhibit anti-tumor activity” and the anti-tumor activity [3] is reported as “exhibit anti-tumor activity”.

In the case of `C[C@]12CC[C@@H]3c4ccc(OC(=O)N(CCCl)N=O)cc4CC[C@H]3[C@@H]1CC[C@@H]2OC(=O)N(CCCl)N=O` [estradiol-3,17β-bis/N-(2-chloroethyl)-N-nitroso carbamate/], the anti-tumor activity (Hepatoma AH 130; [5]) is reported as “exhibit anti-tumor activity” and the anti-tumor activity [3] is reported as “exhibit anti-tumor activity”.

With `CC(=O)Oc1ccc2c(c1)CC[C@@H]1[C@@H]2CC[C@]2(C)[C@@H](OC(=O)N(C(=O)N(CCCl)N=O)C3CCCCC3)CC[C@@H]12` [estradiol-3-acetate-17β-/N^2-cyclohexyl-N^4-(2-chloroethyl)-N^4-nitroso allophanate/] the anti-tumor activity (Hepatoma AH 130; [5]) was “exhibit anti-tumor activity” and the anti-tumor activity [3] was “exhibit anti-tumor activity”.

For `CC[C@]1(OC(=O)N(CCCl)N=O)CC[C@H]2[C@@H]3CCC4=CC(=O)CC[C@@H]4[C@H]3CC[C@@]21C` [17α-ethyl-19-nortestosterone-17β-N-(2-chloroethyl)-N-nitroso carbamate], the anti-tumor activity (Hepatoma AH 130; [5]) was “exhibit anti-tumor activity” and the anti-tumor activity [3] was “exhibit anti-tumor activity”.

For `C[C@]12CC[C@H]3[C@@H](CCC4=CC(=O)CC[C@@]43C)[C@@H]1CC[C@@H]2C(=O)COC(=O)N(CCCl)N=O` [deoxycorticosterone-21-N-(2-chloroethyl)-N-nitroso carbamate], the anti-tumor activity (Hepatoma AH 130; [5]) was “exhibit anti-tumor activity” and the anti-tumor activity [3] was “exhibit anti-tumor activity”.

With `C#C[C@]1(OC(C)=O)CC[C@H]2[C@@H]3CCc4cc(OC(=O)N(CCCl)C(=O)N(CCCl)N=O)ccc4[C@H]3CC[C@@]21C` [17α-ethynylestradiol-17β-acetate-3-/N^2,N^4-bis(2-chloroethyl)-N^4-nitroso allophanate/] the anti-tumor activity (Hepatoma AH 130; [5]) was “exhibit anti-tumor activity” and the anti-tumor activity [3] was “exhibit anti-tumor activity”.

With `C[C@]12CC[C@H]3[C@@H](CCC4=CC(=O)CC[C@@]43C)[C@@H]1CC[C@@H]2OC(=O)N(C(=O)N(CCCl)N=O)C1CCCCC1` [testosterone-17β-/N^2-cyclohexyl-N^4-(2-chloroethyl)-N^4-nitroso allophanate/] the anti-tumor activity (Hepatoma AH 130; [5]) was “exhibit anti-tumor activity” and the anti-tumor activity [3] was “exhibit anti-tumor activity”.

With `C#C[C@]1(OC(=O)N(CCCl)C(=O)N(CCCl)N=O)CC[C@H]2[C@@H]3CCC4=CC(=O)CC[C@@H]4[C@H]3CC[C@@]21C` [17α-ethynyl-19-nortestosterone-17β-/N^2,N^4-bis (2-chloroethyl)-N^4-nitroso allophanate/] the anti-tumor activity (Hepatoma AH 130; [5]) was “exhibit anti-tumor activity” and the anti-tumor activity [3] was “exhibit anti-tumor activity”.

For `CC(=O)Oc1ccc2c(c1)CC[C@@H]1[C@@H]2CC[C@@]2(C)[C@H]1C[C@@H](OC(=O)N(CCCl)N=O)[C@@H]2OC(=O)N(CCCl)N=O` [estriol-3-acetate-16α,17β-bis-/N-(2-chloroethyl)-N-nitroso carbamate/], the anti-tumor activity (Hepatoma AH 130; [5]) was “exhibit anti-tumor activity” and the anti-tumor activity [3] was “exhibit anti-tumor activity”.

In the case of `COc1ccc(N(C(=O)O[C@H]2CC[C@@]3(C)C(=CC[C@@H]4[C@@H]3CC[C@]3(C)C(=O)CC[C@@H]43)C2)C(=O)N(CCCl)N=O)cc1` [dehydroepiandrosterone-3β-/N^2-(p-methoxyphenyl)-N^4-(2-chloroethyl)-N^4-nitroso allophanate/], the anti-tumor activity (Hepatoma AH 130; [5]) is reported as “exhibit anti-tumor activity” and the anti-tumor activity [3] is reported as “exhibit anti-tumor activity”.

`C[C@]12CC[C@@H]3c4ccc(OC(=O)N(CCCl)N=O)cc4CC[C@H]3[C@@H]1C[C@@H](OC(=O)CCC(=O)O)[C@@H]2OC(=O)CCC(=O)O` [estriol-3-N-(2-chloroethyl)-N-nitroso carbamate-16α,17β-bis-hemisuccinate] was tested, and the anti-tumor activity (Hepatoma AH 130; [5]) was “exhibit anti-tumor activity” and the anti-tumor activity [3] was “exhibit anti-tumor activity”.

For `CCCCCCC(=O)O[C@H]1CC[C@H]2[C@@H]3CC[C@H]4C[C@H](OC(=O)N(CCCl)N=O)CC[C@]4(C)[C@H]3CC[C@]12C` [androstanediol-3α-N-(2-chloroethyl)-N-nitroso carbamate-17β-oenanthate], the anti-tumor activity (Hepatoma AH 130; [5]) was “exhibit anti-tumor activity” and the anti-tumor activity [3] was “exhibit anti-tumor activity”.

For `CC(=O)O[C@H]1CC[C@H]2[C@@H]3CCc4cc(OC(=O)N(CCCl)C(=O)N(CCCl)N=O)ccc4[C@H]3CC[C@]12C` [estradiol-17β-acetate-3-/N^2,N^4-bis (2-chloroethyl)-N-^4-nitroso allophanate/], the anti-tumor activity (Hepatoma AH 130; [5]) was “exhibit anti-tumor activity” and the anti-tumor activity [3] was “exhibit anti-tumor activity”.

For `C[C@]12CC[C@H](OC(=O)N(C(=O)N(CCCl)N=O)c3ccc(Cl)cc3)CC1=CC[C@@H]1[C@@H]2CC[C@]2(C)C(=O)CC[C@@H]12` [dehydroepiandrosterone-3β-/N^2-(p-chlorophenyl)-N^4-(2-chloroethyl)-N^4-nitroso allophanate/], the anti-tumor activity (Hepatoma AH 130; [5]) was “exhibit anti-tumor activity” and the anti-tumor activity [3] was “exhibit anti-tumor activity”.

In the case of `C[C@]12CCC(=O)C=C1CC[C@@H]1[C@@H]2[C@@H](O)C[C@@]2(C)[C@H]1CC[C@]2(O)C(=O)COC(=O)N(CCCl)N=O` [hydrocortisone-21-N-(2-chloroethyl)-N-nitroso carbamate], the anti-tumor activity (Hepatoma AH 130; [5]) is reported as “exhibit anti-tumor activity” and the anti-tumor activity [3] is reported as “exhibit anti-tumor activity”.

In the case of `C[C@]12CC[C@@H](OC(=O)N(CCCl)N=O)C[C@@H]1CC[C@@H]1[C@@H]2CC[C@]2(C)[C@@H](O)CC[C@@H]12` [androstanediol-3α-N-(2-chloroethyl)-N-nitroso carbamate], the anti-tumor activity (Hepatoma AH 130; [5]) is reported as “exhibit anti-tumor activity” and the anti-tumor activity [3] is reported as “exhibit anti-tumor activity”.

In the case of `CN(CCCl)C(=O)O[C@H]1CC[C@@]2(C)C(=CC[C@@H]3[C@@H]2CC[C@]2(C)C(=O)CC[C@@H]32)C1` [dehydroepiandrosterone-3β-N-(2-chloroethyl)-N-methyl carbamate, reference compound], the anti-tumor activity (Hepatoma AH 130; [4]) is reported as “inactive”, the Tumour inhibition % ([2]; 5×500 mg/kg i.p.) is reported as < 10% and the Lethality ([2]; 5×500 mg/kg i.p.) is reported as 0/8.

`C[C@]12CC[C@H](OC(=O)NC(=O)N(CCCl)N=O)CC1=CC[C@@H]1[C@@H]2CC[C@]2(C)C(=O)CC[C@@H]12` [dehydroepiandrosterone-3β-/N^4-(2-chloroethyl)-N^4-nitroso allophanate/] was tested, and the anti-tumor activity (Hepatoma AH 130; [5]) was “exhibit anti-tumor activity” and the anti-tumor activity [3] was “exhibit anti-tumor activity”.

— US3963707A, “Novel N-nitroso compounds, compositions containing such compounds, processes for their preparation and methods of treatment therewith, and novel intermediates” (Aktiebolaget Leo, priority 1973, dated 1976)
